Like-named read-outs stand apart in the source and are kept apart here.
Key:
[1] = Adverse event observation, oral study against fleas; assay type: in vivo, beagle dogs; conditions: oral 35 μg/kg Days 0-3, dogs
Method: Dogs were observed hourly±15 minutes for four hours after administration on Day 0 and once daily two hours±15 minutes after Investigational Veterinary Product or control product administration on Days 1, 2 and 3. Observations were conducted for each individual dog.

[2] = cited from earlier work
Rhipicephalus sanguineus = assay: Efficacy against ticks on dogs, oral 250/35/600 μg/kg study; assay type: in vivo
[3] = Intravenous 12.5 mg/kg, single, dogs, n = 6, mean ± standard deviation
[4] = Oral 12.5 mg/kg, single, dogs, n = 6, mean ± standard deviation
[5] = Oral 25.0 mg/kg, single, dogs, n = 6, mean ± standard deviation
[6] = Oral 50.0 mg/kg, single, dogs, n = 6, mean ± standard deviation
[7] = literature data (Table 6; equals Oral 50.0 mg/kg of Table 5)

Cc1cc(C2=NOC(c3cc(Cl)cc(Cl)c3)(C(F)(F)F)C2)ccc1C(=O)NCC(=O)NCC(F)(F)F (centres unmarked) [fluralaner, Fluralaner]
Adverse Events as a result of the product [1]: No Adverse Events
AUC(0-d112) [2, 3]: 87198 ± 11835 ng·days/mL
AUC(0→∞) [2, 3]: 87779 ± 12004 ng·days/mL
Cl [2, 3]: 5.83 ± 0.83 mL/h/kg
Cmax [2, 3]: 7109 ± 908 ng/mL
MRT [2, 3]: 20 ± 3 days
Vz [2, 3]: 3.1 ± 0.5 L/kg
t1/2 [2, 3]: 15 ± 2 days
tmax ([2]; Oral 12.5 mg/kg, single, dogs, n = 6, Median): 1 (range 0.08-2) day
AUC(0-d112) [2, 4]: 29665 ± 13858 ng·days/mL
AUC(0→∞) [2, 4]: 29922 ± 13808 ng·days/mL
Cmax [2, 4]: 2144 ± 860 ng/mL
MRT [2, 4]: 19 ± 2 days
t1/2 [2, 4]: 13 ± 1 days
tmax ([2]; Oral 25.0 mg/kg, single, dogs, n = 6, Median): 1 (range 1-2) day
AUC(0-d112) [2, 5]: 46115 ± 18932 ng·days/mL
AUC(0→∞) [2, 5]: 46416 ± 18929 ng·days/mL
Cmax [2, 5]: 3948 ± 1734 ng/mL
MRT [2, 5]: 15 ± 4 days
t1/2 [2, 5]: 12 ± 3 days
tmax ([2]; Oral 50.0 mg/kg, single, dogs, n = 6, Median): 1 (range 0.17-3) day
AUC(0-d112) [2, 6]: 70171 ± 26412 ng·days/mL
AUC(0→∞) [2, 6]: 70531 ± 26529 ng·days/mL
Cmax [2, 6]: 5419 ± 2086 ng/mL
MRT [2, 6]: 17 ± 3 days
t1/2 [2, 6]: 14 ± 1 days
AUCtot [2, 7]: 70531 µg·days/L
Cmax [2, 7]: 5419 ng/mL
t1/2 [2, 7]: 14 days
tmax [2, 7]: 1 days
live ticks, geometric mean, Group 2 (Rhipicephalus sanguineus; Day 23, oral 250/35/600 μg/kg regimen): 16.2
live ticks, geometric mean, Group 2 (Rhipicephalus sanguineus; Day 31, oral 250/35/600 μg/kg regimen): 13.3

From patent publication US12714696B2, “Low dose fluralaner compositions for protection against parasitic invertebrate pest” (VIRBAC, priority 2019, dated 2026)
